In publication PMC7145534, “Are the intrinsically disordered linkers involved in SSB binding to accessory proteins?” (Nucleic Acids Research, 2019):
“Also recorded” adds a separate entry of the source.

What was measured:
E. coli RecO [1] = assay: ITC of SSB tetramers (apo) binding to RecO; design: species or system Escherichia coli; details: absence of ssDNA, BTP pH 7.0, 200 mM NaCl, 15°C and 25°C
Protocol: (§1) The concentrations were determined thereafter.

χ = assay: ITC of SSB-A binding to χ; design: species or system Escherichia coli; details: Buffer T pH 8.1, 200 mM NaCl, 25°C
Protocol: (§2) The concentrations were determined thereafter. […]
(§3) Figure S7. Results from various control ITC titrations of (a) SSB-A and RecO at 15°C and (b) 25°C, (c) SSB-A and c, (d) P65 and (dT)70, (e) (dT)70 and SSB-A, and (f) (dT)70 and wtSSB. (a) SSB-A (10 µM), a homo-tetrameric SSB variant containing an additional six amino acids, TGASGT, at the C-terminus of each subunit, was titrated into […]
(§4) (5.9 µM) was titrated into c (1 µM) in buffer T (10 mM Tris-HCl, pH 8.1, 200 mM NaCl, […]
(§5) 0.1 mM EDTA) at 25° C. […] (d) dT70 (60 µM) was […]
(§6) titrated into P65 (2 µM) in buffer BTP (pH 7.0, 20 mM NaCl) at 25° C. P65, the full-length […]
(§7) (dT)70. (e) (dT)70 (15 µM) was titrated into SSB-A (1 µM) in buffer T at 25° C. SSB-A (also on this page, place not known: 15°C 25°C. 25°C. 25°C. 25°C. 2.00 kcal mol-1 of injectant kcal mol-1 of injectant [SSB-A]tot/[RecO]tot kcal mol-1 of injectant [SSB-A]tot/[c]tot (f)(d))

(dT)70 [2] = assay: ITC of SSB tetramers with (dT)70; assay type: binding; details: Buffer T pH 8.1, 200 mM NaCl, 25°C
Protocol: (§8) Isothermal titration calorimetry (ITC) experiments were performed using a VP-ITC titration microcalorimeter (Malvern Panalytical, Malvern, UK) ([68]). All proteins and oligonucleotides were dialyzed extensively against the indicated buffer and cleared by centrifugation at 14 000 rpm for 15 min at 4°C. The concentrations were determined thereafter. For experiments with the SSB-Ct peptides and SIPs, 40–50 μM peptides were titrated into 1–2 μM SIPs in Buffer BTP at pH 8.0 and 50 mM NaCl. For experiments with the full-length SSB and its deletion mutants and SIPs, SSB tetramer (8–10 μM) was titrated into SIP (1 μM) in Buffer BTP at pH 7.0 and 200 mM NaCl. The heats of dilution were obtained by blank titrations in which the titrant species is titrated into the buffer, and corrections for heats of dilution were applied.
RecO (1 µM) in buffer BTP (pH 7.0, 200 mM NaCl) at 15° C and (b) 25° C.
(f) (dT)70 (15 µM) is titrated into

E. coli RecO [3] = assay: ITC of SSB-Ct peptides binding to RecO; design: species or system Escherichia coli; details: 25°C
Protocol: as §1

DNA Pol III (χ) [4] = assay: ITC of SSB-Ct peptides binding to the χ subunit; design: species or system Escherichia coli; details: pH 8.0, 50 mM NaCl, 25°C; N fixed to 1
Protocol: as §1

PriC = assay: ITC of SSB-Ct peptides binding to PriC; design: species or system Escherichia coli; details: 25°C
Protocol: as §1

PriA [5] = details: pH 8.0, 50 mM NaCl, 25°C; N fixed to 1
Protocol: as §8
The raw data were analyzed to obtain titration curves by integrating each peak from the time of titrant addition until equilibration back to the baseline using ‘MicroCal Data Analysis’ software provided by the manufacturer. […] The concentration of the free ligand (X) was obtained by solving Equation (2).(2)
In Equations (1) and (2), and are the total concentrations of the ligand and macromolecule, respectively, in the calorimetric cell after ith injection and X is the free ligand concentration. Nonlinear least-squares fitting of the data was performed using the same software. […]

PriA [6] = details: previous study; cited from earlier work
Protocol: All binding reactions were performed under identical solution conditions, although additional experiments were performed at a lower [NaCl] for PriC as indicated, ...

DNA Pol III (χ) [7] = details: previous study; cited from earlier work
Source text: When DNA is bound to the DBD, the acidic tip no longer interacts with the DBD and thus is more available to interact with a SIP. This is supported by the observation that ΔH = −6.0 ± 0.1 kcal/mol for RecO binding to the SSBΔ120-166–(dT)70 complex, which should not contain contributions from the acidic tip-DBD intramolecular interactions.

(dT)70 [8] = assay: ITC control of P65 peptide and (dT)70; assay type: binding; details: BTP pH 7.0, 20 mM NaCl, 25°C
Protocol: as §2, §3, §4, §5, §6, §7

[9] = molecular target: P65 (SSB C-terminal peptide) (Escherichia coli, UniProt P0AGE0 114-178); assay: ITC; no detectable interaction; ITC; buffer BTP (20 mM Bis-Tris propane, 25% v/v glycerol, 1 mM TCEP), pH 7.0, 200 mM NaCl, 25 C for SSB experiments; buffer/pH of individual (dT)70 titrations; details: single-stranded
SSB (wtSSB) = SSB (wtSSB) (Escherichia coli, UniProt P0AGE0 2-178); assay: ITC; 1:1 complex at 200 mM NaCl, (SSB)65 mode; (dT)70 (15 uM) titrated with SSB; ITC; buffer BTP (20 mM Bis-Tris propane, 25% v/v glycerol, 1 mM TCEP), pH 7.0, 200 mM NaCl, 25 C for SSB experiments; buffer/pH of individual (dT)70 titrations; details: protein: recombinant; chain copies: 4; single-stranded
SSB-A = SSB-A (Escherichia coli, UniProt P0AGE0 2-178+=TGASGT, internal_change); assay: ITC; (dT)70 titrated with SSB-A; stoichiometric binding, 1:1; dH similar to wtSSB (-131 kcal/mol in earlier work); ITC; buffer BTP (20 mM Bis-Tris propane, 25% v/v glycerol, 1 mM TCEP), pH 7.0, 200 mM NaCl, 25 C for SSB experiments; buffer/pH of individual (dT)70 titrations; details: protein: recombinant; chain copies: 4; single-stranded

With “SSB-A: additional six amino acids, TGASGT, extending the C-terminus of wtSSB” the “binding to RecO by ITC” value (E. coli RecO [1]) was “not interact with RecO; also recorded: eliminates binding to RecO”, the “binding to χ by ITC” value (χ) was “does not show binding” and the “binding to (dT)70 by ITC” value ((dT)70 [2]) was “binds stoichiometrically”.

In the case of “P15: SSB-Ct peptide, C-terminal 15 amino acids of E. coli SSB, contains acidic tip, no PXXP motifs (PSNEPPMDFDDDIPF)”, the “K” value (E. coli RecO [3]; BTP pH 7, 200 mM NaCl) is reported as “(1.1 ± 0.1) × 10^6 M^−1”, the “K (equilibrium binding constant)” value (E. coli RecO [3]; pH 8.0, 50 mM NaCl, N fixed to 1) is reported as “(1.2 ± 0.3) × 10^7 M^−1” and the “K (equilibrium binding constant)” value (DNA Pol III (χ) [4]) is reported as “(3.0 ± 0.1) × 10^5 M^−1”. For the same molecule, the “K (equilibrium binding constant)” value (PriC; pH 8.0, 10 mM NaCl, N fixed to 1) was “(1.6 ± 0.1) × 10^6 M^−1”, the “binding detected by ITC” value (PriC; pH 8.0, 50 mM NaCl) was “undetectable; also recorded: showed no binding” and the “K (equilibrium binding constant)” value (PriA [5]) was “(2.6 ± 0.1) × 10^5 M^−1”. The “binding to PriA” value (PriA [6]) was “same affinity as P9” and the “binding to χ” value (DNA Pol III (χ) [7]) was “same affinity as P9”.

B1: P65: SSB-Ct peptide, C-terminal 65 amino acids of SSB; acidic tip and the full IDL (peptide)
peptide: GGRQGGGAPAGGNIGGGQPQGGWGQPQQPQGGNQFSGGAQSRPQQSAPAAPSNEPPMDFDDDIPF
In the case of B1, the “binding to (dT)70 by ITC” value ((dT)70 [8]) is reported as “does not interact; also recorded: no detectable interaction”.

B2: (dT)70 (ssDNA)
DNA: TTTTTTTTTTTTTTTTTTTTTTTTTTTTTTTTTTTTTTTTTTTTTTTTTTTTTTTTTTTTTTTTTTTTTT
B2: no binding [9]; binds (SSB (wtSSB)); binds (SSB-A).
